Reference: patent US8674136B2, “Aromatic butan-2-ol compounds and preparation and uses thereof” (Institute of Pharmacology and Toxicology Academy of …, priority 2010, dated 2014)
Values after ≈ are worked out from the molar mass of the structure shown.

Assays:
[1] = system: clinical drug-resistant strain 040 of mycobacterium tuberculosis; assay: microbe, parasite or virus in culture; assay type: cell-based; settings: read-out: MIC, M.tb stains (drug-resistant strains) 40
[2] = system: clinical drug-resistant strain 004 of mycobacterium tuberculosis; assay: microbe, parasite or virus in culture; assay type: cell-based; settings: read-out: MIC, M.tb stains (drug-resistant strains) 004

Structure (SMILES): COc1cc2ccc(Br)cc2cc1C(c1cccc(C)c1)C(O)(CCN(C)C)c1cccc2ccccc12 (stereo not shown) [Compound 37, 1-(3-methylphenyl)-2-(1-naphthyl)-1-[2-(7-bromo-3-methoxy)naphthyl]-4-(N,N-dimethylamino)-butan-2-ol]
- MIC [1]: 0.125 µg/mL (≈ 0.22 µM)
- MIC [2]: 0.5 µg/mL (≈ 0.879 µM)

Structure (SMILES): COc1cc2ccc(Br)cc2cc1C(c1cccc(Cl)c1)C(O)(CCN(C)C)c1cccc2ccccc12 (stereo not shown) [Compound 35, 1-(3-chlorophenyl)-2-(1-naphthyl)-1-[2-(7-bromo-3-methoxy)naphthyl]-4-(N,N-dimethylamino)-butan-2-ol]
- MIC [1]: 0.125 µg/mL (≈ 0.212 µM)
- MIC [2]: 0.5 µg/mL (≈ 0.849 µM)
